From patent US20120316062A1 (priority 2009, published 2012)
Like-named read-outs stand apart in the source and are kept apart here.

How the values were obtained:
Pyricularia oryzae = type: cell-based; conditions: single active, growth at 405 nm 7 days after inoculation, 18° C
Alternaria solani = experiment: Activity against Alternaria solani in the microtiterplate test; type: cell-based; conditions: single active, growth at 405 nm 7 days after inoculation, 18° C

| Compound | Observed efficacy (Pyricularia oryzae; 0.004 ppm) | Observed efficacy (Alternaria solani; 0.063 ppm) | Observed efficacy (Pyricularia oryzae; 1 ppm) | Observed efficacy (Alternaria solani; 16 ppm) |
| --- | --- | --- | --- | --- |
| COC(=O)N(OC)c1ccccc1COc1ccn(-c2ccc(Cl)cc2)n1 [pyraclostrobin] | 23 | 56 |  |  |
| O=C(NC(=O)c1c(F)cccc1F)Nc1ccc(Oc2ccc(C(F)(F)F)cc2Cl)cc1F [flufenoxuron] |  |  | 6 | 0 |
